Key:
[1] = target: T1, plVDAC1 (Mus musculus, UniProt Q60932); experiment: Whole-cell patch-clamp membrane conductance in INS-1 cells; format: cell-based; settings: superfusion with metformin 20 μM (FIG. 4f)
T1 construct: expressed in transfected cells; host or cells: INS-1 832/13 cells (rat insulinoma), transient transfection; plasmid a gift from Dr. R. Buettner
Method: Whole-cell currents in INS-1 832/13 cells were evoked and recorded by EPC10 amplifier and Pulse software (HEKA, Lambrecht/Pfalz, Germany) as previously described (Buda P. et al. 2013. PLoS One. 8(5):e64462) with the temperature maintained at 32° C. The cells were continuously perfused with extracellular solution containing 118 mM NaCl, 20 mM tetraethylammonium chloride, 5.6 mM KCl, 2.6 mM CaCl2), 1.2 mM MgCl2, 5 mM HEPES and 5 mM glucose (pH 7.4 with NaOH) in the presence of 100 μM tolbutamide (T0891, Sigma-Aldrich). The intracellular solution consisted of 125 mM Cs-glutamate, 10 mM CsCl, 10 mM NaCl, 1 mM MgCl2, 5 mM HEPES, 3 mM Mg-ATP, 0.1 mM cAMP and 0.05 mM EGTA (pH 7.2 with CsOH). […] Conductance was measured by applying 200-ms voltage ramps from −90 mV to −50 mV. […] Data presented are from […] after the addition when steady-state was reached.
Conductance measurements were performed after at least 5 minutes exposure, and the cell dish was replaced no later than after 1 hour of perfusion. No wash-out experiments were performed in this experiment.

[2] = target: VDAC1 (Rattus norvegicus, UniProt Q9Z2L0); experiment: Channel conductance of VDAC1 reconstituted in planar lipid bilayer
VDAC1, sequence (Q9Z2L0 whole entry): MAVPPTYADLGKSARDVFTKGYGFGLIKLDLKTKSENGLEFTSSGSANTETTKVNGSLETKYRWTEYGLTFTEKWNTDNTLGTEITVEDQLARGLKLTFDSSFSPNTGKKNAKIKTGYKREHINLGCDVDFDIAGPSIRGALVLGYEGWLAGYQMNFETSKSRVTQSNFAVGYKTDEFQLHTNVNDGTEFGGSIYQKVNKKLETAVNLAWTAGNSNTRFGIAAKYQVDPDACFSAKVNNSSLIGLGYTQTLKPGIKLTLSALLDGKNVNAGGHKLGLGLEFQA

[3] = test system: islets of C57/BL mice; experiment: ATP content and GSIS in islets of control C57/BL mice; format: cell-based, mouse; settings: VDAC1 antibody 10 nM; for GSIS: others 20 μM (FIG. 7e); for ATP content: others 20 μM (FIG. 7d)
Method: (§1) 5 weeks old db/db mice and control (C57/bl) (Janvier Laboratory, France), weighing 18-25 g, were used throughout the experiments. They were given a standard pellet diet (B&K) and tap water ad libitum. The experimental procedures were approved by the Ethics Committee for Animal Research at Lund University. Isolation of pancreatic islets was performed by retrograde injection of a collagenase solution via the bile-pancreatic duct and islets were then collected under a stereomicroscope at room temperature.
(§2) Human pancreatic islets were collected under a stereomicroscope at room temperature and cultured at 5.5 or 20 mM glucose in the absence or presence of test agents for 72 h. Thereafter the islets were washed and preincubated for 30 min at 37° C. in Krebs Ringer bicarbonate buffer, pH 7.4, supplemented with N-2 hydroxyethylpiperazine-N′-2-ethanesulfonic acid (10 mM), 0.1% bovine serum albumin, and 1 mM glucose. Each incubation vial contained 12 islets in 1.0 ml KRB buffer solution and treated with 95% O2 and 5% CO2 to obtain constant pH and oxygenation. After preincubation, the buffer was changed to a medium containing either 1 mM or 16.7 mM glucose. The islets were then incubated for 1 h at 37° C. in a metabolic shaker (30 cycles per min). Immediately after incubation an aliquot of the medium was removed for analysis of insulin and the islets were incubated in acid-ethanol for insulin content determination by radioimmunoassay.
(§3) ATP release from isolated mouse or human islets or from INS-1 cells after transfection with mitochondrial targeted VDAC1 (mtVDAC1) or plasma membrane targeted VDAC1 (plVDAC1) plasmids was determined using a luminometric assay kit according to manufacturer's recommendation (Biovision). After incubation of islets (50/vial) or INS-1 cells for 60 min, an aliquot of the media was removed for subsequent measurements of released ATP. Then the islets or INS-1 cells were washed 3 times and the lysates were used for measurements of ATP and protein contents followed the protocol provided by the vendor.

[4] = test system: TXNIP; settings: insulin-secreting cells and endothelial cells (Shaked 2011; Li 2015); cited from earlier work
[5] = test system: VDAC1 in islets from T2D donors; experiment: VDAC1 expression and localization in islets of T2D donors with documented metformin therapy; design: species or system human
Method: Donors were grouped according to HbA1c i.e. less than 6% (ND), between 6% and 6.5% (IGT), higher than 6.5% or history of diabetes (T2D). […] The islets were then hand-picked under stereomicroscope prior to use. […] Total RNA from handpicked mouse islets, human donor islets (Diabetic and non-diabetic) or [MUT] cells were extracted using RNAeasy (Qiagen, Hilden, Germany). […] Concentration and purity of total RNA was measured with a NanoDrop ND-1000 spectrophotometer (A260/A280>1.9 and A260/A230>1.4) (NanoDrop Technologies, Wilmington, Del.) and RNA Quality Indicator (RQI) higher than 8.0 (Experion Automated Electrophoresis, Bio-Rad, USA) was considered to be high-quality total RNA preparations. […] The qPCR was carried out as follows: 50° C. for 2 minutes, 95° C. for 10 minutes, 40 cycles of 95° C. for 15 seconds, and 60° C. for 1 minute. […] Isolated human or mouse islets as well as INS-1 cells were seeded on the glass-bottom dish cultured overnight. […] Primary antibodies against mouse VDAC1 (Abcam), goat VDAC2 (Abcam) and Guinea pig insulin (Eurodiagnostica) were diluted in blocking buffer and incubated overnight at 4° C. Immunoreactivity was quantified using fluorescently labeled secondary antibodies (1:200) and visualized by confocal microscopy (Carl Zeiss, Germany). The ratio is calculated by mean intensity of plasma membrane to mean intensity in cytosol, according to the formula:

[6] = test system: human islet cells; experiment: Cellular reductive capacity (MTS) in human islets; format: cell-based; settings: VDAC1 antibody 10 nM
Method: The reductive capacity of cells was measured either on INS-1 cells or dispersed human islet cells when the INS-1 cells or islets were subjected to 5 or 20 mM glucose for 72 h in the absence or presence of test agents or after down-regulation of VDAC1 and VDAC2 as described elsewhere (35, 40). Measurement of reductive capacity was performed using the MTS reagent kit according to the manufacturer's instructions (Promega). Apoptosis was measured with the Cell Death Kit (Roche Diagnostics), which quantifies the appearance of cytosolic nucleosomes.

[7] = test system: VDAC1 mRNA in human islets; experiment: VDAC1 mRNA in non-diabetic human islets cultured under glucotoxic condition; format: cell-based; settings: 72 h at 20 mM glucose, metformin 20 μM (FIG. 1d)
Method: Total RNA from handpicked mouse islets, human donor islets (Diabetic and non-diabetic) or [MUT] cells were extracted using RNAeasy (Qiagen, Hilden, Germany). […] Concentration and purity of total RNA was measured with a NanoDrop ND-1000 spectrophotometer (A260/A280>1.9 and A260/A230>1.4) (NanoDrop Technologies, Wilmington, Del.) and RNA Quality Indicator (RQI) higher than 8.0 (Experion Automated Electrophoresis, Bio-Rad, USA) was considered to be high-quality total RNA preparations. […] The qPCR was carried out as follows: 50° C. for 2 minutes, 95° C. for 10 minutes, 40 cycles of 95° C. for 15 seconds, and 60° C. for 1 minute. […] VDAC1 and VDAC2 mRNA and protein level were investigated by both qPCR and Western blotting relative to the expression of GAPDH and β-actin respectively.

[8] = test system: islets of diabetic db/db mice; experiment: ATP content, ATP release and GSIS in islets of diabetic db/db mice; format: cell-based, mouse
Method: as §1, §2, §3

[9] = test system: db/db mice; settings: Cao K, et al. 2014; cited from earlier work
[10] = test system: db/db mice; experiment: Oral (gavage) administration of VBIT-4 to db/db mice, blood glucose; format: in vivo, mouse
Method: Next, the effect of orally administered VBIT-4 on blood glucose in db/db mice was examined. VBIT-4 at the indicated doses or vehicle was administered by gavage to db/db mice from the age of 6-11 weeks. Blood was sampled and […] once a week. Blood glucose was measured by a handheld device ContourXt (Bayer) using blood glucose strips.

T1 sequence (Q60932 whole entry, the tested form may be a part): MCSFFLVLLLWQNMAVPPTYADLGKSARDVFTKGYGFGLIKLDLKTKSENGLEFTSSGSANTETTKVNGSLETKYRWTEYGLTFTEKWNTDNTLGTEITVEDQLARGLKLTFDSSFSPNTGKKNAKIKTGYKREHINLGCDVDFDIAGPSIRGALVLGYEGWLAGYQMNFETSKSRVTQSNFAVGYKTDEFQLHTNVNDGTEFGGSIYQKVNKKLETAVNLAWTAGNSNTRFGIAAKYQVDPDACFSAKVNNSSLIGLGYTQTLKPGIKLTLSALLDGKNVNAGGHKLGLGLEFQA

| Compound | elevated conductance in plVDAC1-transformed cells [1] | membrane currents in control INS-1 cells [1] | conductance of VDAC1 reconstituted into a planar lipid bilayer ([2]; metformin 30 μM, 10-30 min after addition (FIG. 4g)) | inhibition at 30 µM ([2]; read-out: inhibition of channel conductance) | GSIS [3] | ATP content [3] | TXNIP activation by high glucose concentrations [4] | islet VDAC1 mRNA ([5]; islets from T2D donors with documented metformin therapy (n=4)) | VDAC1 localization in β-cells ([5]; single examined T2D donor with documented metformin therapy (FIG. 3a, 3b)) | cellular reductive capacity (metabolism) in T2D islets ([6]; metformin 20 μM (FIG. 6h)) | cellular reductive capacity after culture at 5 mM glucose ([6]; human islets, metformin 20 μM (FIG. 6g)) | VDAC1 mRNA [7] | insulin secretion in low glucose ([8]; islets from hyperglycemic db/db mice (FIG. 6c)) | cellular ATP levels ([8]; islets from hyperglycemic db/db mice, acute addition 1 h, VDAC1 antibody 10 nM, metformin 20 μM (FIG. 6a)) | ATP release ([8]; islets from hyperglycemic db/db mice, acute addition 1 h, VDAC1 antibody 10 nM, metformin 20 μM (FIG. 6b)) | insulin secretion at 16.7 mM glucose ([8]; islets from hyperglycemic db/db mice, compared to control (FIG. 6c)) | severity of hyperglycemia at onset of the disease [9] | blood glucose ([10]; daily gavage for 5 weeks, age 6-11 weeks (FIG. 8)) | reduction of blood glucose concentration ([10]; gavage, 10 mg/Kg body weight, 5 weeks) |
| --- | --- | --- | --- | --- | --- | --- | --- | --- | --- | --- | --- | --- | --- | --- | --- | --- | --- | --- | --- |
| CN(C)C(=N)N=C(N)N [metformin] | abrogating the elevated conductance | did not affect membrane currents | blocks conductance | 50% | do not affect | do not affect | inhibits TXNIP activation | did not display elevated VDAC1 mRNA | remained intracellular | markedly improved metabolism | no effect | prevented the increase in VDAC1 mRNA | no effect | increased its cellular levels | reduced ATP release | increased insulin secretion | attenuates the severity of hyperglycemia |  |  |
| O=C(CC(CO)N1CCN(c2ccc(OC(F)(F)F)cc2)CC1)Nc1ccc(Cl)cc1 (racemic) [VBIT-4, N-(4-chlorophenyl)-4-hydroxy-3-(4-(4-(trifluoromethoxy)phenyl)-piperazin-1-yl)butanamide] |  |  |  |  | do not affect | do not affect |  |  |  |  |  |  |  |  |  |  |  | reduced blood glucose | the reduction was significant along the entire trail period |
